Assay results published in publication PMC11990879, “Anticandidal Activity of Lipopeptides Containing an LL-37-Derived Peptide Fragment KR12” (Molecules, 2025).
Values after ≈ are worked out from the molar mass of the structure shown. Where a SMILES comes first, the peptide text is derived from it. The star is where a group is joined. Octanoyl = CCCCCCCC(=O)*; Hexanoyl = CCCCCC(=O)*; PhAc = O=C(Cc1ccccc1)*

Experiments:
[1] = test system: Candida strains (C. albicans, C. glabrata, C. lipolytica, C. tropicalis); type: cell-based; conditions: MFCs equal to or twice as high as the corresponding MICs
Description: (§1) Fungal strains were purchased from the Polish Collection of Microorganisms (Polish Academy of Science, Wroclaw, Poland). Four reference strains of Candida (C. albicans ATCC 10231, C. glabrata ATCC 15126, C. lypolytica PCM 2680, and C. tropicalis PCM 2680) were cultured on the Dextrose Sabouraud Agar (DSA, Neogen, Lansing, MI, USA). Before performing the assays, the fungi were cultured in a Sabouraud dextrose broth (DSB, Neogen, Lansing, MI, USA) for 48 h under aerobic conditions at 25 °C. Afterward, the fungal cultures were centrifuged (2500 rpm, 10 min) and resuspended in the appropriate liquid medium for appropriate inoculums for the performed assays.
(§2) The strains cultured described in Section 4.1 were suspended in the Roswell Park Memorial Institute 1640 Medium (RPMI, Sigma-Aldrich, St. Louis, MO, USA) at an initial inoculum of ca. 5 × 10^3 CFU/mL. The stock solutions (1024 mg/L) of tested compounds in RPMI were added to 96-well polystyrene plates and diluted serially to well no. 10, leaving wells 11 and 12 for fertility and sterility controls. The tested Candida strains were exposed to graded concentrations (range 0.5–256 mg/L) of the lipopeptides and conventional antifungals (benzalkonium chloride, fluconazole, and nystatin) for 48 h under aerobic conditions at 25 °C. After incubation, the results were read visually.
(§3) Then the results were read visually. Both MIC as well as the MFC assays were performed threetimes on three different days.

[2] = test system: C. albicans biofilms cultured on polystyrene; type: cell-based, Candida albicans
Description: as §1
Fungal suspensions in DSB were added to the wells at initial inoculums of ca. 5 × 10^6 CFU/mL and incubated under aerobic conditions, at 25 °C for 24 h, 48 h, and 72 h, in order to grow candidal biofilms of different maturity. After the appropriate time of incubation, the wells were washed with phosphoric buffered (PBS), and fresh RPMI medium supplemented with antifungals and the lipopeptides at graded concentrations (range […]) were added. The fungal biofilms were exposed to the compounds for 24 h (aerobic conditions, 25 °C). After the exposure to antifungals, the content of the wells was aspirated and a 0.01% solution of resazurin (Sigma-Aldrich, St. Louis, MO, USA) in DSB was added. Resazurin (blue) was applied as a cell viability reagent, which upon contact with living cells is reduced to a pink resorufin. The samples with the dye were incubated for 1 h at 25 °C and the absorbance was measured at 570 and 600 nm with a microplate reader (Thermo Fisher Scientific, Waltham, MA, USA). The assays were performed four times on four different days. The results are presented as the means of the measured percentage of metabolic activity (MA) of fungi in the well when compared with positive (sample with Candida in DSB) and negative controls (pure DSB), which were taken as 100% and 0%, respectively. The MA of Candida in the samples was measured according to the following formula:MA(%) = (ΔAbs of sample − ΔAbs of negative control)/(ΔAbs of positive control − ΔAbs of negative control);(1) ΔAbs = absorbance at 570 nm − absorbance at 600 nm.(2)
The MBEC was taken as the lowest concentration of antifungal which allowed us to reduce the metabolism of fungal cells to 10% (or less) of the positive control.

[3] = test system: human red blood cells; conditions: human red blood cells; determined in previous studies; ref [13],[14]; cited from earlier work
From the text: Table 2 Minimum inhibitory concentrations (MIC) and minimum fungicidal concentrations (MFC) determined for peptides and reference antifungals [g/L]. The highest antimicrobial activity is marked in green, medium values in yellow, while the weakest antifungal activity is marked in red. Minimum hemolytic concentration (MHC5%—causing hemolysis of 5% of human red blood cells) determined in previous stu | column: MHC5%

[4] = test system: C. albicans ATCC 10231; assay: microbe, parasite or virus in culture; type: cell-based, Candida albicans; conditions: MIC wells and two higher concentrations seeded on DSA, 48 h, 25 °C, read visually, three times
Description: as §1, §2, §3

[5] = test system: C. tropicalis PCM 2680; assay: microbe, parasite or virus in culture; type: cell-based, Candida tropicalis; conditions: C. tropicalis; RPMI 1640, inoculum ca. 5 × 10^3 CFU/mL, range 0.5–256 mg/L, 48 h, 25 °C, read visually, three times on three days
Description: as §1, §2

[6] = test system: C. albicans ATCC 10231; assay: microbe, parasite or virus in culture; type: cell-based, Candida albicans; conditions: C. albicans; RPMI 1640, inoculum ca. 5 × 10^3 CFU/mL, range 0.5–256 mg/L, 48 h, 25 °C, read visually, three times on three days
Description: as §1, §2

[7] = test system: C. lypolytica PCM 2680; assay: microbe, parasite or virus in culture; type: cell-based, Candida lipolytica; conditions: RPMI 1640, inoculum ca. 5 × 10^3 CFU/mL, range 0.5–256 mg/L, 48 h, 25 °C, read visually, three times on three days
Description: as §1, §2

[8] = test system: C. lypolytica PCM 2680; assay: microbe, parasite or virus in culture; type: cell-based, Candida lipolytica; conditions: MIC wells and two higher concentrations seeded on DSA, 48 h, 25 °C, read visually, three times
Description: as §1, §2, §3

[9] = test system: C. glabrata ATCC 15126; assay: microbe, parasite or virus in culture; type: cell-based, Candida glabrata; conditions: MIC wells and two higher concentrations seeded on DSA, 48 h, 25 °C, read visually, three times
Description: as §1, §2, §3

[10] = test system: C. glabrata ATCC 15126; assay: microbe, parasite or virus in culture; type: cell-based, Candida glabrata; conditions: first C. glabrata column; RPMI 1640, inoculum ca. 5 × 10^3 CFU/mL, range 0.5–256 mg/L, 48 h, 25 °C, read visually, three times on three days
Description: as §1, §2

[11] = test system: C. tropicalis PCM 2680; assay: microbe, parasite or virus in culture; type: cell-based, Candida tropicalis; conditions: MIC wells and two higher concentrations seeded on DSA, 48 h, 25 °C, read visually, three times
Description: as §1, §2, §3

For C[C@@H]1[C@H](O)[C@@H](C)/C=C/C=C/CC/C=C/C=C/C=C/C=C/C(O[C@H]2O[C@H](C)[C@@H](O)[C@H](N)[C@@H]2O)CC2O[C@](O)(CC(O)C(O)CCC(O)CC(O)CC(O)CC(=O)O[C@H]1C)CC(O)C2C(=O)O (stereo partly shown) [Nystatin, nystatin, reference compound], the “Fungicidal activity (MFC relative to MIC)” value [1] was “fungicidal activity against all Candida strains”, the “Antibiofilm concentration (256 mg/L) relative to the determined MIC” value ([2]; C. albicans biofilm) was “over 100 times” and the “MBEC 24 h” value ([2]; C. albicans biofilm cultured on polystyrene for 24 h, exposure 24 h, 25 °C, RPMI, resazurin, metabolic activity reduced to 10% or less, four times on four days) was 256 mg/L. For the same compound, the “MBEC 48 h” value ([2]; C. albicans biofilm cultured on polystyrene for 48 h, exposure 24 h, 25 °C, RPMI, resazurin, metabolic activity reduced to 10% or less, four times on four days) was 256 mg/L and the “MBEC 72 h” value ([2]; C. albicans biofilm cultured on polystyrene for 72 h, exposure 24 h, 25 °C, RPMI, resazurin, metabolic activity reduced to 10% or less, four times on four days) was 256 mg/L.
In the case of CCCCCCCC(=O)NCCCC[C@H](NC(=O)[C@H](CCCNC(=N)N)NC(=O)[C@@H](NC(=O)[C@@H](NC(=O)[C@H](CCC(N)=O)NC(=O)[C@H](CCCNC(=N)N)NC(=O)[C@@H](NC(=O)[C@H](CCCCN)NC(=O)[C@H](CC(=O)O)NC(=O)[C@H](Cc1ccccc1)NC(=O)[C@H](CC(C)C)NC(=O)[C@@H](N)CCCNC(=N)N)[C@@H](C)CC)C(C)C)[C@@H](C)CC)C(N)=O [XVII, Retro-KR12-C8^ε-NH2] (H-RLFDKIRQVIRK(Octanoyl)-NH2), the “MHC5% (minimum hemolytic concentration causing hemolysis of 5% of human red blood cells)” value (shortened to “MHC5%”) [3] is listed as 256 g/L.
In the case of CCCCCC(=O)N[C@@H](CCCCN)C(=O)N[C@@H](CCCNC(=N)N)C(=O)N[C@H](C(=O)N[C@H](C(=O)N[C@@H](CCC(N)=O)C(=O)N[C@@H](CCCNC(=N)N)C(=O)N[C@H](C(=O)N[C@@H](CCCCN)C(=O)N[C@@H](CC(=O)O)C(=O)N[C@@H](Cc1ccccc1)C(=O)N[C@@H](CC(C)C)C(=O)N[C@@H](CCCNC(=N)N)C(N)=O)[C@@H](C)CC)C(C)C)[C@@H](C)CC [III, C6-KR12-NH2] (Hexanoyl-KRIVQRIKDFLR-NH2), the “MHC5%” value [3] is given as 256 g/L.
In the case of CC[C@H](C)[C@H](NC(=O)[C@H](CCCNC(=N)N)NC(=O)[C@H](CCC(N)=O)NC(=O)[C@@H](NC(=O)[C@@H](NC(=O)[C@H](CCCNC(=N)N)NC(=O)[C@H](CCCCN)NC(=O)Cc1ccccc1)[C@@H](C)CC)C(C)C)C(=O)N[C@@H](CCCCN)C(=O)N[C@@H](CC(=O)O)C(=O)N[C@@H](Cc1ccccc1)C(=O)N[C@@H](CC(C)C)C(=O)N[C@@H](CCCNC(=N)N)C(N)=O [XXI, Phenylacetic acid-KR12-NH2] (PhAc-KRIVQRIKDFLR-NH2), the “MHC5%” value [3] is listed as 256 g/L, the “Minimum fungicidal concentration (MFC), C. albicans” value [4] is listed as 64 µg/mL (≈ 37.9 µM) and the “Minimum inhibitory concentration (MIC), C. tropicalis” value [5] is listed as 8 µg/mL (≈ 4.74 µM). For the same compound, the “Minimum inhibitory concentration (MIC), C. albicans” value [6] was 64 µg/mL (≈ 37.9 µM), the “Minimum inhibitory concentration (MIC), C. lipolytica” value [7] was 16 µg/mL (≈ 9.47 µM) and the “Minimum fungicidal concentration (MFC), C. lipolytica” value [8] was 16 µg/mL (≈ 9.47 µM). For the same compound, the “Minimum fungicidal concentration (MFC), C. glabrata” value [9] was 256 µg/mL (≈ 152 µM), the “Minimum inhibitory concentration (MIC), C. glabrata” value [10] was 256 µg/mL (≈ 152 µM) and the “Minimum fungicidal concentration (MFC), C. tropicalis” value [11] was 16 µg/mL (≈ 9.47 µM).
